How the values were obtained:
[1] = target: Non-receptor tyrosine-protein kinase TYK2 (Homo sapiens, UniProt P29597); assay: Selectivity interaction (Ambit KINOMEscan and KiNATiv profiling in Jurkat cells) EUB0000090b TYK2; format: cell-based; settings: at 1 µM
[2] = target: T1, Serine/threonine-protein kinase 4 (Homo sapiens) (UniProt Q13043); assay: Selectivity interaction (Kinase panel (DSF assay)) EUB0001559a STK4
T1 sequence (whole entry): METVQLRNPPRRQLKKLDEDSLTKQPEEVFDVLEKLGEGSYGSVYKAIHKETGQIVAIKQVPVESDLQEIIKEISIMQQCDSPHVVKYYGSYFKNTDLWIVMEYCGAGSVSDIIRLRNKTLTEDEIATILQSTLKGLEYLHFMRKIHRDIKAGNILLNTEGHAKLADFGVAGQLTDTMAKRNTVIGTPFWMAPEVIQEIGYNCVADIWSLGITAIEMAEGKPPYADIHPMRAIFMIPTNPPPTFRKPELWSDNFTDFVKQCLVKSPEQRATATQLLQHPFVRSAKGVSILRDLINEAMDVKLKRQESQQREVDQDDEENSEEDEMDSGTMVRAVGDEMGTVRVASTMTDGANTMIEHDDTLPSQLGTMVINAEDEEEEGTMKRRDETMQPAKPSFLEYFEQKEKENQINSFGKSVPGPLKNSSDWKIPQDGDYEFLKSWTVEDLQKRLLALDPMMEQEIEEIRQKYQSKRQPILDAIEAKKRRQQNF

[3] = target: Serine/threonine-protein kinase MRCK alpha (Homo sapiens) (UniProt Q5VT25); assay: Selectivity interaction (KinomeScan (DiscoverX)) EUB0000655a CDC42BPA; settings: at 10 µM
[4] = target: Dual specificity tyrosine-phosphorylation-regulated kinase 1B (Homo sapiens, UniProt Q9Y463); assay: Selectivity interaction (KinomeScan (DiscoverX)) EUB0000655a DYRK1B; settings: at 10 µM
[5] = target: T2, Serine/threonine-protein kinase D1 (Homo sapiens) (UniProt Q15139); assay: Selectivity interaction (KinomeScan (DiscoverX)) EUB0000655a PRKD1; settings: at 10 µM
T2 sequence (whole entry): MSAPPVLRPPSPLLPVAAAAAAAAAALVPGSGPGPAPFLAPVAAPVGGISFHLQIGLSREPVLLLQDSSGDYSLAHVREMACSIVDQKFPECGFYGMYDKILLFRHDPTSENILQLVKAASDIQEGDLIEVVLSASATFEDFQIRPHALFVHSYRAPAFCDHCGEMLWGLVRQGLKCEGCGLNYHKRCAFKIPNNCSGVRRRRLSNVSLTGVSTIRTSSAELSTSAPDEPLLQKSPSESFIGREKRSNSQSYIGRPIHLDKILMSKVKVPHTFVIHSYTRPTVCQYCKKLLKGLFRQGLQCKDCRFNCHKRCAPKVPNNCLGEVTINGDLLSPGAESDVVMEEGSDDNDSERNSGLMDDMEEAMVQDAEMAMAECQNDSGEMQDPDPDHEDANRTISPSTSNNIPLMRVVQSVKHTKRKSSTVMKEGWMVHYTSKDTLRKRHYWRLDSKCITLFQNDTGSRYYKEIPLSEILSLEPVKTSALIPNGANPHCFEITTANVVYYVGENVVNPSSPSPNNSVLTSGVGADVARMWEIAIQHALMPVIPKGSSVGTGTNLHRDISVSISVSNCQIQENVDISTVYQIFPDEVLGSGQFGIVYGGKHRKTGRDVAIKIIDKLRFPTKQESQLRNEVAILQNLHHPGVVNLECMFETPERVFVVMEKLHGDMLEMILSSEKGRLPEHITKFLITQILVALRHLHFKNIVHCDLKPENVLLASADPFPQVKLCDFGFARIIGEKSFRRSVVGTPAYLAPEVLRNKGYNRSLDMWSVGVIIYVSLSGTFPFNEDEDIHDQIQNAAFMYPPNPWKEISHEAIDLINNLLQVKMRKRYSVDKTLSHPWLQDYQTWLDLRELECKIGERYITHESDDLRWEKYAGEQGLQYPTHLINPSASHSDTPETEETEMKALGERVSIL

[6] = target: Cyclin-dependent kinase 4 (Homo sapiens, UniProt P11802); assay: Selectivity interaction (KinomeScan (DiscoverX)) EUB0001079a CDK4; settings: at 1 µM
[7] = target: T3, Mitogen-activated protein kinase 13 (Homo sapiens) (UniProt O15264); assay: Selectivity interaction (KinomeScan (DiscoverX)) EUB0000618a MAPK13; settings: at 10 µM
T3 sequence (whole entry): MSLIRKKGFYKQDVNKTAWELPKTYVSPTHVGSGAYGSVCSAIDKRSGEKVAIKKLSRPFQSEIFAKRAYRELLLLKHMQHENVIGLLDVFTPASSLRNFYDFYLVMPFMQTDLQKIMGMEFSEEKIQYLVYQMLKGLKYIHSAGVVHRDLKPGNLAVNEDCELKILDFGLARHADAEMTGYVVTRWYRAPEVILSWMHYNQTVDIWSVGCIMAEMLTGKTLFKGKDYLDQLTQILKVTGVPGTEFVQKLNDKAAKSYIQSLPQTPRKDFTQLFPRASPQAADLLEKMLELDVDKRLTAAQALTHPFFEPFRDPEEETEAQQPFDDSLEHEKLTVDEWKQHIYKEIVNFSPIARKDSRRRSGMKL

[8] = target: Serine/threonine-protein kinase SIK2 (Homo sapiens) (UniProt Q9H0K1); assay: Selectivity interaction (KinomeScan (DiscoverX)) EUB0001619a SIK2; settings: at 1 µM
[9] = target: Dual specificity mitogen-activated protein kinase kinase 1 (Homo sapiens, UniProt Q02750); assay: Selectivity interaction (KinomeScan (DiscoverX)) EUB0000045b MAP2K1
[10] = target: Mitogen-activated protein kinase 11 (Homo sapiens) (UniProt Q15759); assay: Selectivity interaction (Upstate Kinase Profiler service (Millipore)) EUB0000056c MAPK11; settings: at 1 µM
[11] = target: Cyclin-dependent kinase 7 (Homo sapiens, UniProt P50613); assay: Selectivity interaction (Kinase panel (KiNativ target engagement assay in Jurkat cells)) EUB0001635a CDK7; format: cell-based; settings: Selectivity number of off-targets 0.0, Selectivity number of targets 233.0, Source Knowledge https://www.sciencedirect.com/science/article/pii/S2451945619300674?via%3Dihub, at 1 µM
SRSF protein kinase 1 = SRSF protein kinase 1 (Homo sapiens, UniProt Q96SB4); assay: Selectivity interaction (ActivX KiNativ screen (kinase selectivity in THP-1 cell lysates)) EUB0000639a SRPK1; format: subcellular; settings: lysate, at 5 µM
[12] = target: E3 ubiquitin-protein ligase TRIM33 (Homo sapiens) (UniProt Q9UPN9); assay: Selectivity interaction (Human bromodomain panel (DSF assay)) EUB0000233b TRIM33
[13] = target: Casein kinase II subunit alpha (Homo sapiens, UniProt P68400); assay: Selectivity interaction (Kinase screening (Upstate/Millipore)) EUB0000604a CSNK2A1
[14] = target: Phosphatidylinositol 4,5-bisphosphate 3-kinase catalytic subunit beta isoform (Homo sapiens) (UniProt P42338); assay: Selectivity interaction (KinomeScan (DiscoverX)) EUB0000695a PIK3CB; settings: at 100 nM

Chain of Dual specificity mitogen-activated protein kinase kinase 1 (Q02750 whole entry): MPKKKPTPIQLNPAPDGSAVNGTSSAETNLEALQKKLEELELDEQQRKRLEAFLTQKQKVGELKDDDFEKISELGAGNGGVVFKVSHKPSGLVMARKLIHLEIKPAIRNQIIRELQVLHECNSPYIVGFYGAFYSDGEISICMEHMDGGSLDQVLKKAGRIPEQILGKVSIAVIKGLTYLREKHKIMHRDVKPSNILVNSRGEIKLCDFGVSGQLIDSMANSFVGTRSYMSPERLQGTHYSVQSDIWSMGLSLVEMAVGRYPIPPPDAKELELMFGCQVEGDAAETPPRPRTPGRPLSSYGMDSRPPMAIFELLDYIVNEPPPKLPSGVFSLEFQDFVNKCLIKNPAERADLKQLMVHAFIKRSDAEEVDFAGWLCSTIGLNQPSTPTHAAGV
Chain of E3 ubiquitin-protein ligase TRIM33 (Homo sapiens) (Q9UPN9 whole entry): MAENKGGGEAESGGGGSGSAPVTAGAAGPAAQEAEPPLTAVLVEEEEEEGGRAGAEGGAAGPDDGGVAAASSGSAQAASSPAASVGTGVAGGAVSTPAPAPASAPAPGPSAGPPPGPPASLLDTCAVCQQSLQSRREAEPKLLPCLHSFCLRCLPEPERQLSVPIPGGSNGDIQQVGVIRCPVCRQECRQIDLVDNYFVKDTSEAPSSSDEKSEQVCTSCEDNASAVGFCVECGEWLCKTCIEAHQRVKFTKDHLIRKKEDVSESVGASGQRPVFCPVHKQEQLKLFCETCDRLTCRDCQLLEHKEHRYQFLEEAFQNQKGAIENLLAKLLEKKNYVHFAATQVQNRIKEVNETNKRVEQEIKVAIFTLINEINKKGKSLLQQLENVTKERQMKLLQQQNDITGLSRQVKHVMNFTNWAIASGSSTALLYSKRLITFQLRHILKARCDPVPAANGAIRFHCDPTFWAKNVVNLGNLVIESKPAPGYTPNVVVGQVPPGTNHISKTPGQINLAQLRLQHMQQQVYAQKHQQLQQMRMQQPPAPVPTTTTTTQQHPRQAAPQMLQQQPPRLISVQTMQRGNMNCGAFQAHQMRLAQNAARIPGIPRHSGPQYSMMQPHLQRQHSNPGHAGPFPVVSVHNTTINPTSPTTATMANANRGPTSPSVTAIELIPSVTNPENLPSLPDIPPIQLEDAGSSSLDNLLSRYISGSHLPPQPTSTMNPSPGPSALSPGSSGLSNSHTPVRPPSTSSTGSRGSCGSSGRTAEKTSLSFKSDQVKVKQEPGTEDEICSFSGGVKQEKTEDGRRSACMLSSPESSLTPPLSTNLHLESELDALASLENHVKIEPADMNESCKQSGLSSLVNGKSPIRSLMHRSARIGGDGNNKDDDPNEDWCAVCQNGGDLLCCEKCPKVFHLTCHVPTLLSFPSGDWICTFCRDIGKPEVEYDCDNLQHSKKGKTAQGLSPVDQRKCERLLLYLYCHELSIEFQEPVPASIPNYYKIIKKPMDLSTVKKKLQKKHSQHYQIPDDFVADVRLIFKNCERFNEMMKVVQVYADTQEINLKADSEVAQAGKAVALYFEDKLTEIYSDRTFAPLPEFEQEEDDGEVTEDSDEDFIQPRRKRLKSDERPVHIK
Chain of Cyclin-dependent kinase 7 (P50613 whole entry): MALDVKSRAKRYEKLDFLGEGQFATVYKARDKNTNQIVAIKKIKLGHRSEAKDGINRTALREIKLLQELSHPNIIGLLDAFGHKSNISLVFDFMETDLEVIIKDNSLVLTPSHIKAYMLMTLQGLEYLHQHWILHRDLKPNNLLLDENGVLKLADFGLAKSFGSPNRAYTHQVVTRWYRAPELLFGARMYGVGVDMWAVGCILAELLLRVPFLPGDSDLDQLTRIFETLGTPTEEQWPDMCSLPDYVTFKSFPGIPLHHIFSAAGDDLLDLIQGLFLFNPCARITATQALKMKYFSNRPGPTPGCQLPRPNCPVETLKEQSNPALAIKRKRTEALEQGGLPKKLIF
Chain of Casein kinase II subunit alpha (P68400 whole entry, looked up, canonical isoform): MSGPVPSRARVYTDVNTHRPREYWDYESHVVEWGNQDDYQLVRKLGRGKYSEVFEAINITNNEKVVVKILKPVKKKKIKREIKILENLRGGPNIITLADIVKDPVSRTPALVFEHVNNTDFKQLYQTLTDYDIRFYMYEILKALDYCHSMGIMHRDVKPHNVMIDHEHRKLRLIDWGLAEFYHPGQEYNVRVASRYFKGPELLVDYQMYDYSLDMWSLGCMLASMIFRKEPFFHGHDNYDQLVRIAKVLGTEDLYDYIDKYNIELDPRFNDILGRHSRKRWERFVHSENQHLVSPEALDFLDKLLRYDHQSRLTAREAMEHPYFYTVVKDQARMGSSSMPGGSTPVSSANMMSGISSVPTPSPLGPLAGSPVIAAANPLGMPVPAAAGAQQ
Chain of Serine/threonine-protein kinase MRCK alpha (Homo sapiens) (Q5VT25 whole entry): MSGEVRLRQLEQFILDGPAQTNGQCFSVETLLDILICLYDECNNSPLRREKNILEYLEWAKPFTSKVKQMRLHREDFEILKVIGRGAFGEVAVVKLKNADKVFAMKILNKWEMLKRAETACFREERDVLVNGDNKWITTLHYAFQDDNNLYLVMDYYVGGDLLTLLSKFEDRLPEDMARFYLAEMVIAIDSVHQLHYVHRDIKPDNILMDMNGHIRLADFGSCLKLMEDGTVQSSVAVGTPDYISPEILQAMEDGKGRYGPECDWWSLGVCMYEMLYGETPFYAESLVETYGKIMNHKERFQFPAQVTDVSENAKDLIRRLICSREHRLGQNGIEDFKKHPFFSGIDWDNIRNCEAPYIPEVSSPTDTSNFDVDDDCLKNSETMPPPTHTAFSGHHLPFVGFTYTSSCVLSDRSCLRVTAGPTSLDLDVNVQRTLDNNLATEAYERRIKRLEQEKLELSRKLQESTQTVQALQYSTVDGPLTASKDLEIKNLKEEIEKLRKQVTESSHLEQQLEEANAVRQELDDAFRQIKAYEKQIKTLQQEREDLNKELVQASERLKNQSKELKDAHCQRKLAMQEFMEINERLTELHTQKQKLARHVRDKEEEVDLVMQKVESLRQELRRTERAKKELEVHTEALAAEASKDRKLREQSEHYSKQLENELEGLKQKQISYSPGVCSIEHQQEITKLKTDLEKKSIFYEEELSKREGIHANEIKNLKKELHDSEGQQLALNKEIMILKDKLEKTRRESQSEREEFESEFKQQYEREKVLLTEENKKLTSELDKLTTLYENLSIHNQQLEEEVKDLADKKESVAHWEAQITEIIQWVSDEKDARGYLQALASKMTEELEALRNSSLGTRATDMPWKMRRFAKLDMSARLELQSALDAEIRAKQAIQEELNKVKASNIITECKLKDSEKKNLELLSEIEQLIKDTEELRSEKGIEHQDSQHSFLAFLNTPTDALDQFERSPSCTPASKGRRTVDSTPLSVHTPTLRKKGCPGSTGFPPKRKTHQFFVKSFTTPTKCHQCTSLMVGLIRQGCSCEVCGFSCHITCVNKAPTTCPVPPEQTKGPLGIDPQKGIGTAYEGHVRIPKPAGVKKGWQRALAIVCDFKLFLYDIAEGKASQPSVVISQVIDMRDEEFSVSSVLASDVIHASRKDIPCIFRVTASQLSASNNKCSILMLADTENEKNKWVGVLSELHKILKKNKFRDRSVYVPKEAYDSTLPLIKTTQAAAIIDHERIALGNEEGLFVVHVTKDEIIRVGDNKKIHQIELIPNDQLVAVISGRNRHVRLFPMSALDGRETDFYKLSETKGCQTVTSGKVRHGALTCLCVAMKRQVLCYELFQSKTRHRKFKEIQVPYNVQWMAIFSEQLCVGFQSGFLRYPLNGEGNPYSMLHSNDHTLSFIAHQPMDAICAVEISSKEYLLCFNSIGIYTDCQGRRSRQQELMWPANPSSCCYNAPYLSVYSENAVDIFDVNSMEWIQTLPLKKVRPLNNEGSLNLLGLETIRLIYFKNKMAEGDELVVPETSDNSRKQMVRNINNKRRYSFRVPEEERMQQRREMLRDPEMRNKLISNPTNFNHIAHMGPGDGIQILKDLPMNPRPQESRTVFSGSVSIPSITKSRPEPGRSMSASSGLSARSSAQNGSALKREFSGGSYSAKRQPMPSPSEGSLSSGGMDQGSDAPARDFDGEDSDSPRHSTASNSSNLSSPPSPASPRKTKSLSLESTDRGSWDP
Chain of Serine/threonine-protein kinase SIK2 (Homo sapiens) (Q9H0K1 whole entry, looked up): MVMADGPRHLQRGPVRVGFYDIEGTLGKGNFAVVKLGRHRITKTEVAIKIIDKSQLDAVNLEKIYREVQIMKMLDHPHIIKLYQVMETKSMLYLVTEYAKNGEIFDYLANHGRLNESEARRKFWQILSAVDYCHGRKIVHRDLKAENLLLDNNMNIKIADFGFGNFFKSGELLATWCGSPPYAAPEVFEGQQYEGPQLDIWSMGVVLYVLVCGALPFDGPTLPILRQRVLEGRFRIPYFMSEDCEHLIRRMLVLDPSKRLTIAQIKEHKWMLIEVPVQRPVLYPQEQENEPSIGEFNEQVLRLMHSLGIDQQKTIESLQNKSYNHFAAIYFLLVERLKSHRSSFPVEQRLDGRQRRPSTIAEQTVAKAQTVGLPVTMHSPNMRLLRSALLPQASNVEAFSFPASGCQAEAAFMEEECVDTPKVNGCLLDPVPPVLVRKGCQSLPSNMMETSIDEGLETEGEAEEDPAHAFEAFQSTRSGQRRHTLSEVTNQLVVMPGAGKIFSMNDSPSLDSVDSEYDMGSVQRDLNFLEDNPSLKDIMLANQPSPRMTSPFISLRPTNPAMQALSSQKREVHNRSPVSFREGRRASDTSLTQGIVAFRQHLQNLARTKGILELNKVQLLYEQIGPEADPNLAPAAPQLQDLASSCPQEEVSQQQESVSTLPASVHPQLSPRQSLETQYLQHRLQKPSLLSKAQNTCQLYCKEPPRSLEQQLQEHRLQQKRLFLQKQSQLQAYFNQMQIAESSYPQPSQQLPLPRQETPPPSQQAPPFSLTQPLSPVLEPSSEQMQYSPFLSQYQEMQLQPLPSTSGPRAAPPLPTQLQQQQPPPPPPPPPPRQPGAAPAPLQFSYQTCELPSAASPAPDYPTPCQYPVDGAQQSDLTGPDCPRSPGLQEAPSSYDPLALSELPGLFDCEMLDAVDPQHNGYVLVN

Compound: CN(C)C/C=C/C(=O)Nc1ccc(C(=O)N2CCCC(Nc3ncc(Cl)c(-c4c[nH]c5ccccc45)n3)C2)cc1 (stereo unspecified)
- % of control [1]: 94%

Compound: CN(C(=O)c1cnn2cccnc12)c1cc2c(cc1N1CCOCC1)C(=O)N(C[C@@H](F)C(C)(C)O)C2
- dTM [2]: -0.1 K

Compound: CN(C)CCOc1ccc(-c2nc(-c3ccncc3)c(-c3ccc4c(c3)CC/C4=N\O)[nH]2)cc1
- % of control [3]: 78%
- % of control [4]: 100%
- % of control [5]: 3.8%

Compound: Nc1cnc(N2CCc3cc(S(=O)(=O)Nc4c(F)cc(Cl)cc4F)cc(N4CCCC4=O)c32)nc1 [TP-020n]
- % of control [6]: 97%

Compound: O[C@H]1CC[C@H](Nc2ncc3nc(Nc4c(F)cc(F)cc4F)n([C@H]4CCOC4)c3n2)CC1
- % of control [7]: 90%

Compound: N#Cc1cccc(-c2c[nH]c3ncnc(N4CCOCC4)c23)c1
- % of control [8]: 32%

Compound: C=CC(=O)Nc1cc(-n2c(=O)ccc3cnc4ccc(-c5ccc(NS(C)(=O)=O)cc5)cc4c32)ccc1C
- % of control ([9]; at 1 µM): 100%
- % of control ([9]; at 10 µM): 65%

Compound: Cc1ccc(-c2ccc3c(ccc4sc5c(c43)NC[C@@H](C)NC5=O)n2)cn1
- % of inhibition [10]: 5%

Compound: C=CC(=O)Nc1ccc(C(=O)Nc2[nH]nc3c2CN(C(=O)N[C@H](CN(C)C)c2ccccc2)C3(C)C)cc1
- % of engagement [11]: 95.5%

Compound: CC[C@@H]1[C@H](F)C(=O)N[C@@H]1COc1nccc2cc(C(N)=O)c(OC)cc12 [ZIMLOVISERTIB]
- % of inhibition (SRSF protein kinase 1): -1.1%

Compound: CN(C)CCCOc1ccc(-c2cc(NCCCn3cccn3)nc(S(C)(=O)=O)n2)cc1
- dTM [12]: < 2 K

Compound: Cc1cnc(Nc2ccc(F)cc2Cl)nc1-c1c[nH]c(C(=O)N[C@H](CO)c2cccc(Cl)c2)c1
- % of inhibition [13]: 0%

Compound: Cc1cc(F)c(C(=O)Nc2cccc(-c3nncn3C(C)C)n2)cc1-n1cnc(C2CC2)c1
- % of control [14]: 100%

Reference: ChEMBL document CHEMBL5465560, “Selectivity Literature for EUbOPEN Chemogenomic Library” (2024)
